Like-named read-outs stand apart in the source and are kept apart here.

For orientation: CC50 means the concentration giving 50% cytotoxicity. In general, EC50 refers to the concentration that produces a half-maximal response.

A short description of data set [1]: Cytotoxicity (CC50) in mock-infected H1-HeLa cells, XTT dye reduction. The data set is classed as cell-based, human. The following applies: human, H1-HeLa cells, mock-infected. An outline of the steps: (§1)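 XTT dye reduction (formazan, 450/650 nm) in H1-HeLa cells, mock-infected, gave CC50.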
A general note: Tetrazolium assays rely on reduction of a dye to a coloured formazan, in cell work by metabolically active cells.

A further data set deals with H1-HeLa cells. The description is as above. The data set is classed as cell-based, human. An outline of the steps: as §1
Data set [2] concerns strains of human rhinovirus (HRV). Description: Antirhinoviral H1-HeLa cell culture assay (XTT cell protection, EC50), other HRV strains. The following applies: read-out: EC50. The data set is classed as cell-based, human rhinovirus in H1-HeLa cells. An outline of the steps:
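Protection of H1-HeLa cells from rhinovirus was scored two days post-infection via XTT dye reduction read at 450/650 nm, alongside mock-infected cells for toxicity. CC50/EC50 gives the therapeutic index.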

In data set [3] the target is T1, Recombinant rhinovirus 3C protease, serotype 14 (Human rhinovirus 14, UniProt P03303).
T1 construct: Recombinant rhinovirus 3C proteases; made in house
The data set can be described thus: Inhibition of rhinovirus 3C protease (FRET assay, kobs/[I]), serotype 14. It counts as biochemical. The following applies: pH 7.6, read-out: kobs/[I] (3C protease inhibition activity). In outline: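 kobs/[I] values came from progress curves of reactions started by adding 50-100 nM protease to buffer (50 mM tris pH 7.6, 1 mM EDTA, 2% DMSO) containing compound and ~1 μM quenched DABCYL-EDANS substrate. Rising EDANS fluorescence reported cleavage.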

In another data set the test system is HRV-14. The data set can be described thus: Antirhinoviral H1-HeLa cell culture assay (XTT cell protection, EC50), HRV-14. Conditions: Rhinovirus B, HRV14, H1-HeLa. The data set is classed as cell-based, human rhinovirus (HRV) serotype-14 in H1-HeLa cells. In outline: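 XTT dye reduction (450/650 nm) measured survival of H1-HeLa cells two days after HRV-14 infection at m.o.i. 0.13 in the presence of compound, giving EC50. The therapeutic index is CC50 divided by EC50.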

Where [4] appears, read: Human rhinovirus sp., HRV9, H1-HeLa, HRV-9.
Where [5] appears, read: Human rhinovirus sp., HRV10, H1-HeLa, HRV-10.
Setting [6] is: Human rhinovirus sp., HRV16, H1-HeLa, HRV-16.
Where [7] appears, read: Human rhinovirus sp., HRV25, H1-HeLa, HRV-25.
Setting [8] is: Human rhinovirus sp., HRV39, H1-HeLa, HRV-39.
[9] abbreviates: Human rhinovirus sp., HRV3, H1-HeLa, HRV-3.
Where [10] appears, read: Human rhinovirus sp., HRV13, H1-HeLa, HRV-13.
[11] abbreviates: Human rhinovirus sp., HRV78, H1-HeLa, HRV-78.

T1 sequence (P03303 1538-1719): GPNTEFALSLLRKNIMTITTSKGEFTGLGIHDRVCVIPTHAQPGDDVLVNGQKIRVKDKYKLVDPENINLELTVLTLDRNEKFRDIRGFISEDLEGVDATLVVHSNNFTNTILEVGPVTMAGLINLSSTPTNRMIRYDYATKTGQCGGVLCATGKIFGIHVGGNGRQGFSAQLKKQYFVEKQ

For `Cc1cc(C(=O)Nc2cccn([C@@H](Cc3ccc(F)c(F)c3)C(=O)N[C@H](/C=C/C(=O)OC3CCCCC3)C[C@@H]3CCNC3=O)c2=O)no1` [Compound 54, trans-(2′S,3″″″S,4S)-4-[3′-(3″,4″-Difluorophenyl)-2′-(3′″-{[1″″-(5′″″-methylisoxazol-3′″″-yl)methanoyl]amino}-2″″-oxo-2″″H-pyridin-1″″-yl)propanoylamino]-5-(2″″″-oxopyrrolidin-3″″″-yl)pent-2-enoic Acid Cyclohexyl Ester], the CC50 at 2 days in data set [1] (line of HRV-14) was greater than 10000 nM. The CC50 with H1-HeLa cells (line of HRV-1A), in the data set on H1-HeLa cells (line of HRV-2), with H1-HeLa cells (line of HRV-9), in the data set on H1-HeLa cells (line of HRV-10), in the data set on H1-HeLa cells (line of HRV-16) and with H1-HeLa cells (line of HRV-25) was greater than 10000 nM each time. In the data set with H1-HeLa cells (line of HRV-39), this compound gave a CC50 greater than 10000 nM. For the same compound, the EC50 in data set [2] (H1-HeLa, HRV-1A) worked out at 490 nM; in data set [2] (H1-HeLa, HRV-2), 148 nM; in data set [2] (setting [4]), 517 nM; in data set [2] (setting [5]), 131 nM; in data set [2] (setting [6]) it was 142 nM; in data set [2] (setting [7]) it was 215 nM. Moreover, the values for the EC50 (in data set [2] (setting [8]); in the data set with HRV-14) were 346 nM and 45 nM, respectively. Further, in data set [3] (HRV-14), the kinact/KI stood at 244000 M⁻¹ s⁻¹.

`C#CC[C@@H](C(=O)N[C@H](/C=C/C(=O)OC1CCCCC1)C[C@@H]1CCNC1=O)n1cccc(NC(=O)c2cc(C)on2)c1=O` [Compound 55, trans-(2′S,3′″″S,4S)-4-[2′-(3″-{[1′″-(5″″-Methylisoxazol-3″″-yl)methanoyl]amino}-2′″-oxo-2′″H-pyridin-1′″-yl)pent-4″-ynoylamino]-5-(2′″″-oxopyrrolidin-3′″″-yl)pent-2-enoic Acid Cyclohexyl Ester] came in with a CC50 at 2 days in data set [1] (HRV-14) greater than 10000 nM. For the same compound, the CC50 with H1-HeLa cells (HRV-1A), with H1-HeLa cells (HRV-9), in the data set on H1-HeLa cells (HRV-10) and in the data set with H1-HeLa cells (HRV-25) was greater than 10000 nM throughout. Also, the concentration giving a half-maximal response (EC50) in data set [2] (H1-HeLa, HRV-1A) worked out at 520 nM; in data set [2] (setting [4]), 531 nM; in data set [2] (setting [5]) it was 195 nM; in data set [2] (setting [7]), 515 nM; in the data set with HRV-14, 173 nM. Besides, the kinact/KI in data set [3] (HRV-14 3C protease) was determined as 34000 M⁻¹ s⁻¹.

The compound `Cc1cc(C(=O)Nc2cccn([C@@H](Cc3ccc(F)c(F)c3)C(=O)N[C@H](/C=C/C(=O)OC3CCCCCC3)C[C@@H]3CCNC3=O)c2=O)no1` [Compound 56, trans-(2′S,3″″″S,4S)-4-[3′-(3″,4″-Difluorophenyl)-2′-(3′″-{[1″″-(5′″″-methylisoxazol-3′″″-yl)methanoyl]aminol}-2″″-oxo-2″″H-pyridin-1″″-yl)propanoylamino]-5-(2″″″-oxopyrrolidin-3″″″-yl)pent-2-enoic Acid Cycloheptyl Ester] came in with a CC50 at 2 days in data set [1] (HRV-14) greater than 10000 nM. Also, the CC50 with H1-HeLa cells (HRV-1A), with H1-HeLa cells (HRV-9), in the data set with H1-HeLa cells (HRV-10) and in the data set with H1-HeLa cells (HRV-25) was greater than 10000 nM throughout. Moreover, the EC50 worked out at 504 nM in data set [2] (H1-HeLa, HRV-1A); 546 nM in data set [2] (setting [4]); 158 nM in data set [2] (setting [5]); 400 nM in data set [2] (setting [7]); 163 nM in the data set with HRV-14. Moreover, the kinact/KI in data set [3] (HRV-14 3C protease) is 99000 M⁻¹ s⁻¹.

In turn, `C#CC[C@@H](C(=O)N[C@H](/C=C/C(=O)OC1CCCCCC1)C[C@@H]1CCNC1=O)n1cccc(NC(=O)c2cc(C)on2)c1=O` [Compound 57, trans-(2′S,3′″″S,4S)-4-[2′-(3″-{[1′″-(5″″-Methylisoxazol-3″″-yl)methanoyl]amino}-2′″-oxo-2′″H-pyridin-1′″-yl)pent-4″-ynoylamino]-5-(2′″″-oxopyrrolidin-3′″″-yl)pent-2-enoic Acid Cycloheptyl Ester] had a CC50 at 2 days in data set [1] (HRV-14) greater than 10000 nM. For the same compound, the CC50 with H1-HeLa cells (HRV-1A), in the data set with H1-HeLa cells (HRV-9), in the data set with H1-HeLa cells (HRV-10) and in the data set on H1-HeLa cells (HRV-25) was greater than 10000 nM throughout. In addition, the EC50 worked out at 1610 nM in data set [2] (H1-HeLa, HRV-1A); 1500 nM in data set [2] (setting [4]); 482 nM in data set [2] (setting [5]); 511 nM in data set [2] (setting [7]); 422 nM with HRV-14. Further, in data set [3] (HRV-14 3C protease), the kinact/KI stood at 47000 M⁻¹ s⁻¹.

On to `Cc1cc(C(=O)Nc2cccn([C@@H](Cc3ccc(F)c(F)c3)C(=O)N[C@H](/C=C/C(=O)OC3CCC3)C[C@@H]3CCNC3=O)c2=O)no1` [Compound 58, trans-(2′S,3″″″S,4S)-4-[3′-(3″,4″-Difluorophenyl)-2′-(3′″-{[1″″-(5′″″-methylisoxazol-3′″″-yl)methanoyl]amino}-2″″-oxo-2″″H-pyridin-1″″-yl)propanoylamino]-5-(2″″″-oxopyrrolidin-3″″″-yl)pent-2-enoic Acid Cyclobutyl Ester], for which the CC50 at 2 days in data set [1] (HRV-14) was greater than 10000 nM. The CC50 in the data set with H1-HeLa cells (HRV-1A), in the data set with H1-HeLa cells (HRV-2), in the data set on H1-HeLa cells (HRV-3), in the data set on H1-HeLa cells (HRV-9), in the data set with H1-HeLa cells (HRV-10) and in the data set with H1-HeLa cells (HRV-11) was greater than 10000 nM throughout. Further, the CC50 in the data set on H1-HeLa cells (HRV-13), in the data set on H1-HeLa cells (HRV-16), with H1-HeLa cells (HRV-19), in the data set on H1-HeLa cells (HRV-23), in the data set with H1-HeLa cells (HRV-25) and in the data set with H1-HeLa cells (HRV-39) was greater than 10000 nM throughout. Besides, the CC50 with H1-HeLa cells (HRV-78) and with H1-HeLa cells (HRV-Hanks) was greater than 10000 nM each time. The EC50 in data set [2] (H1-HeLa, HRV-1A) amounted to 14 nM; in data set [2] (H1-HeLa, HRV-2), 13 nM; in data set [2] (H1-HeLa, HRV-23), 8 nM; in data set [2] (Human rhinovirus sp., H1-HeLa, HRV-Hanks), 21 nM; in data set [2] (setting [9]), 5 nM; in data set [2] (setting [4]) it was 47 nM. The EC50 in data set [2] (setting [5]) amounted to 11 nM; in data set [2] (Human rhinovirus sp., HRV11, H1-HeLa, HRV-11), 5 nM; in data set [2] (setting [10]), 24 nM; in data set [2] (setting [6]), 14 nM; in data set [2] (Human rhinovirus sp., HRV19, H1-HeLa, HRV-19), 17 nM; in data set [2] (setting [7]) it was 16 nM. Further, the EC50 came out at 20 nM in data set [2] (setting [8]), 14 nM in data set [2] (setting [11]) and 3 nM in the data set with HRV-14. Also, the kinact/KI in data set [3] (HRV-14 3C protease) is 2.2e+06 M⁻¹ s⁻¹.

In turn, `CC[C@@H](C(=O)N[C@H](/C=C/C(=O)OC1CCCCC1)C[C@@H]1CCNC1=O)n1cccc(NC(=O)c2cc(C)on2)c1=O` [Compound 60, trans-(2′S,3′″″S,4S)-4-[2′-(3″-{[1′″-(5″″-Methylisoxazol-3″″-yl)methanoyl]amino}-2′″oxo-2′″H-pyridin-1′″-yl)butanoylamino]-5-(2′″″-oxopyrrolidin-3′″″-yl)pent-2-enoic Acid Cyclohexyl Ester] showed a CC50 at 2 days in data set [1] (HRV-14) greater than 10000 nM. The CC50 in the data set on H1-HeLa cells (HRV-1A), in the data set on H1-HeLa cells (HRV-9), in the data set on H1-HeLa cells (HRV-10) and in the data set on H1-HeLa cells (HRV-25) was greater than 10000 nM in each case. For the same compound, the EC50 in data set [2] (H1-HeLa, HRV-1A) came out at 558 nM; in data set [2] (setting [4]), 516 nM; in data set [2] (setting [5]) it was 368 nM; in data set [2] (setting [7]) it was 251 nM; in the data set on HRV-14 it was 173 nM. Besides, the kinact/KI in data set [3] (HRV-14 3C protease) turned out to be 23000 M⁻¹ s⁻¹.

Compound `Cc1cc(C(=O)Nc2cccn([C@@H](Cc3ccccc3)C(=O)N[C@H](/C=C/C(=O)OC(C)C)C[C@@H]3CCNC3=O)c2=O)no1` [Compound 66, trans-(2′S,3′″″S,4S)-4-[2′-(3″-{[1′″-(5″″-Methylisoxazol-3″″-yl)methanoyl]amino}-2′″-oxo-2′″H-pyridin-1′″-yl)-3″-phenylpropanoylamino]-5-(2′″″-oxopyrrolidin-3′″″-yl)pent-2-enoic Acid Isopropyl Ester] came in with a CC50 at 2 days in data set [1] (HRV-14) greater than 10000 nM. The CC50 in the data set on H1-HeLa cells (HRV-3), in the data set on H1-HeLa cells (HRV-9), in the data set with H1-HeLa cells (HRV-13), in the data set with H1-HeLa cells (HRV-16), in the data set with H1-HeLa cells (HRV-39) and with H1-HeLa cells (HRV-78) was greater than 10000 nM throughout. The EC50 in data set [2] (setting [9]) worked out at 56 nM; in data set [2] (setting [4]), 196 nM; in data set [2] (setting [10]) it was 57 nM; in data set [2] (setting [6]) it was 11 nM; in data set [2] (setting [8]), 22 nM; in data set [2] (setting [11]), 15 nM. In the data set with HRV-14, this compound showed an EC50 of 155 nM. The kinact/KI in data set [3] (HRV-14 3C protease) amounted to 480000 M⁻¹ s⁻¹.

(Values after US6514997B2, “Antipicornaviral compounds and compositions, their pharmaceutical uses, and materials for their synthesis” (Agouron Pharmaceuticals, Inc., priority 1999, dated 2003).)
